# Patent US20090286883A1, “TREATMENT OF HEART FAILURE AND ASSOCIATED CONDITIONS BY ADMINISTRATION OF MONOAMINE OXIDASE INHIBITORS” (Universita' degli Studi di Padova (University of Padua), priority 2008, published 2009)
# Values joined by “and” are separate entries in the source; they are usually repeats but may differ in a detail not shown here. Identical values can stand only once.
# Experiments:
# caspase-3 = assay: Cleaved caspase-3 levels after 6 weeks of TAC; assay type: in vivo; conditions: 6 weeks TAC mice, FIG. 1
# From the text: Levels of cleaved caspase-3 were markedly elevated after 6 weeks in TAC mice vs shams.
# [1] = system: neonatal rat cardiomyocytes; assay: MAO-A and BNP gene expression after NE in absence or presence of clorgyline; assay type: cell-based
# From the text: This process may contribute to the development of […]
# cardiomyocytes = assay: NFAT4 gene expression upon stimulation with tyramine in absence or presence of clorgyline; assay type: cell-based
# HL-1 cardiomyocytes = assay: Oxidative stress (mitochondrial ROS production) upon H2O2 or arachidonic acid; assay type: cell-based; conditions: for Levels of oxidative stress, Arachidonic acid (% increase vs control): 5 μM arachidonic acid, no treatment 145.6 ± 3.8; for Levels of oxidative stress, Arachidonic acid (% increase vs control) / Levels of oxidative stress, H2O2 (% increase vs control): clorgyline 1 μM; for Levels of oxidative stress, H2O2 (% increase vs control): 100 μM H2O2, no treatment 156.2 ± 4.3; for rise in ROS production / protection: H2O2 or arachidonic acid stimulated HL-1 cardiomyocytes, cell pretreatment
# Procedure: In vivo, mitochondria and the respiratory chain, in particular, are considered a major intracellular ROS source^15. MAOs are located in the outer membrane of these organelles and MAO-A can increase oxidative burden. When HL-1 cardiomyocytes were incubated with 100 μM H2O2 or 5 μM arachidonic acid, a rise in ROS production at mitochondrial level was observed (Table 6).
# [2] = system: TAC-induced pressure overload; assay: Transverse aortic constriction (TAC) pressure overload in mice, cardiac morphology and in vivo ventricular function; conditions: for EF (ejection fraction) / FS (fractional shortening) / Heart rate / IVS (interventricular septum) / LV mass/BW / LVEDD (left ventricular end-diastolic dimension) / LVESD (left ventricular end-systolic dimension) / LVPW (left ventricular posterior wall): clorgyline 1 mg/kg/day
# myocytes = assay: EMT gene expression upon stimulation with tyramine; assay type: cell-based; conditions: tyramine 10 μM
smiles,measurement,setting,value
C#CCN(C)CCCOc1ccc(Cl)cc1Cl [clorgyline],caspase-3 activation (cleaved caspase-3),caspase-3,prevented caspase-3 activation
same,BNP (vs GAPDH) gene expression,"[1]; NE 10 μM 24 hrs in presence of clorgyline, NE alone 8.9 ± 1.4",4.85 ± 0.9 ^#
same,NFAT4 gene expression (normalized to GAPDH),"cardiomyocytes; Control (no tyramine), +clorgyline",0.23 ± 0.02
same,NFAT4 gene expression (normalized to GAPDH),"cardiomyocytes; Tyramine, +clorgyline (preincubation)",0.32 ± 0.02
same,effect on tyramine-induced increase of NFAT4 expression,cardiomyocytes; preincubation with clorgyline prior to tyramine treatment,reduced this effect significantly
same,"Levels of oxidative stress, Arachidonic acid (% increase vs control)",HL-1 cardiomyocytes,98.3 ± 1.3 % increase vs control
same,"Levels of oxidative stress, H2O2 (% increase vs control)",HL-1 cardiomyocytes,122.6 ± 3 % increase vs control
same,rise in ROS production / protection,HL-1 cardiomyocytes,"completely prevented, or reduced"
same,EF (ejection fraction),[2]; TAC 3 weeks,91.6 ± 0.4^C %
same,FS (fractional shortening),[2]; TAC 3 weeks,56.8 ± 1.9^C %
same,Heart rate,[2]; TAC 3 weeks,702 ± 12 bpm
same,IVS (interventricular septum),[2]; TAC 3 weeks,1.3 ± 0.02^B mm
same,LV mass/BW,[2]; TAC 3 weeks,6.4 ± 0.3^B mg/g
same,LVEDD (left ventricular end-diastolic dimension),[2]; TAC 3 weeks,2.9 ± 0.06 mm
same,LVESD (left ventricular end-systolic dimension),[2]; TAC 3 weeks,1.2 ± 0.06 mm
same,LVPW (left ventricular posterior wall),[2]; TAC 3 weeks,1.2 ± 0.03^B mm
same,Heart rate,[2]; TAC 6 weeks,670 ± 13.7 bpm
same,IVS (interventricular septum),[2]; TAC 6 weeks,1.4 ± 0.03^B mm
same,LV mass/BW,[2]; TAC 6 weeks,"7.2 ± 0.4^B, D mg/g"
same,LVEDD (left ventricular end-diastolic dimension),[2]; TAC 6 weeks,3.0 ± 0.08^D mm
same,LVESD (left ventricular end-systolic dimension),[2]; TAC 6 weeks,1.2 ± 0.04^D mm
same,LVPW (left ventricular posterior wall),[2]; TAC 6 weeks,"1.3 ± 0.03^B, D mm"
same,EF (ejection fraction),"[2]; TAC 6 weeks, listed as CLO",93.6±0.4% and 94.3 ± 0.4^D %
same,FS (fractional shortening),"[2]; TAC 6 weeks, listed as CLO",61±0.8% and 61.6 ± 0.9^D %
same,"levels of hypertrophy (LV mass, LVEDD, LVESD)","[2]; TAC, vs saline-treated TAC mice",reduced
same,wall thickness,"[2]; after 3 weeks of TAC, compared to sham operated animals",increased
same,LV function,"[2]; after 3 weeks of TAC, vs saline-treated TAC mice",significantly better
same,LV function,"[2]; at 6 weeks of TAC, vs saline-treated TAC mice",improved
C#CCN(C)[C@H](C)Cc1ccccc1 [deprenyl],"Levels of oxidative stress, Arachidonic acid (% increase vs control)",HL-1 cardiomyocytes,142.4 ± 0.3 % increase vs control
same,"Levels of oxidative stress, H2O2 (% increase vs control)",HL-1 cardiomyocytes,150.7 ± 4.9 % increase vs control
same,rise in ROS production / protection,HL-1 cardiomyocytes,No protection
"NC[C@H](O)c1ccc(O)c(O)c1 [NE, norepinephrine]",MAO-A gene expression and hypertrophy (BNP expression),[1]; NE 10 μM for 24 hrs,up-regulation of MAO-A gene expression and induction of hypertrophy
same,MAO-A (vs GAPDH) gene expression,"[1]; NE 10 μM, 24 hrs, control 0.58 ± 0.05",1.85 ± 0.04
same,BNP (vs GAPDH) gene expression,"[1]; NE 10 μM, 24 hrs, control 1 ± 0",8.9 ± 1.4
NCCc1ccc(O)cc1 [tyramine],increase in EMT gene expression,myocytes,2 fold
same,EMT/GAPDH gene expression,myocytes; control 0.5 ± 0.04,0.97 ± 0.2
same,increase of NFAT4 expression,cardiomyocytes; tyramine incubation of cardiomyocytes,2 fold
same,NFAT4 gene expression (normalized to GAPDH),"cardiomyocytes; tyramine, −clorgyline, control 0.24 ± 0.03",0.38 ± 0.01
